Molecular target: T1, JAK3: Recombinant human kinase domain (Homo sapiens, UniProt P52333)
T1 construct: JAK3: Recombinant human kinase domain from Millipore (Cat #14-629) or prepared; purchased Millipore 14-629
Test: Determination of IC50 of Janus Kinase (JAK) inhibition, radioactive end-point 33P-ATP assay, JAK3
Format: biochemical
Details: ATP 1.5 uM, peptide 50 uM, 20 minutes, read-out: JAK3-INHIB-DR/v1~NO ADDITIVE~Enzyme_Conc = 100

T1 sequence (P52333 822-1111 limits assumed): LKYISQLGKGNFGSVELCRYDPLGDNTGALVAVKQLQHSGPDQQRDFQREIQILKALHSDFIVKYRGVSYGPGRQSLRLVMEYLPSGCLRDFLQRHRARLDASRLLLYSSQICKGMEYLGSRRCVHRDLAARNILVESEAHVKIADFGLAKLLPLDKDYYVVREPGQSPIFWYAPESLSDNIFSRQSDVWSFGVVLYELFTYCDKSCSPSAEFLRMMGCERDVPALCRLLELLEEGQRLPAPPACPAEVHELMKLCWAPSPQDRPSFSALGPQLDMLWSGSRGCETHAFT

| Structure (SMILES) | IC50 [nM] |
| --- | --- |
| C[C@@H](NC(=O)c1c[nH]c2ncc(-c3nn(C)c4cc(F)ccc34)nc12)c1ccc(C#N)cc1 [Example I-218, 2-(6-Fluoro-1-methyl-1H-indazol-3-yl)-5H-pyrrolo[2,3-b]pyrazine-7-carboxylic acid [(R)-1-(4-cyano-phenyl)-ethyl]-amide] | 14.7 |
| C[C@@H](NC(=O)c1c[nH]c2ncc(-c3nn(CCN(C)C)c4cc(Cl)ccc34)nc12)C(=O)N1CC(C#N)C1 [Example I-230, 2-[6-Chloro-1-(2-dimethylamino-ethyl)-1H-indazol-3-yl]-5H-pyrrolo[2,3-b]pyrazine-7-carboxylic acid [(R)-2-(3-cyano-azetidin-1-yl)-1-methyl-2-oxo-ethyl]-amide] | 12.3 |
| Cn1nc(-c2cnc3[nH]cc(C(=O)N[C@@H]4CCN(Cc5ccccc5)C4)c3n2)c2ccc(F)cc21 [Example I-213, 2-(6-Fluoro-1-methyl-1H-indazol-3-yl)-5H-pyrrolo[2,3-b]pyrazine-7-carboxylic acid ((R)-1-benzyl-pyrrolidin-3-yl)-amide] | 76.1 |
| CC(C)NC(=O)c1c[nH]c2ncc(-c3nn(C)c4cc(Cl)ccc34)nc12 [Example I-108, 2-(6-Chloro-1-methyl-1H-indazol-3-yl)-5H-pyrrolo[2,3-b]pyrazine-7-carboxylic acid isopropylamide] | 7.05 |
| C[C@H](NC(=O)c1c[nH]c2ncc(-c3nn(C)c4cc(Cl)cc(F)c34)nc12)C1CC1 [Example I-141, 2-(6-Chloro-4-fluoro-1-methyl-1H-indazol-3-yl)-5H-pyrrolo[2,3-b]pyrazine-7-carboxylic acid ((S)-1-cyclopropyl-ethyl)-amide] | 3.77 |
| CC(CC(F)(F)F)NC(=O)c1c[nH]c2ncc(-c3nn(C)c4cc(F)ccc34)nc12 (stereo not shown) [Example I-185, 2-(6-Fluoro-1-methyl-1H-indazol-3-yl)-5H-pyrrolo[2,3-b]pyrazine-7-carboxylic acid (3,3,3-trifluoro-1-methyl-propyl)-amide] | 5.03 |
| C[C@@H](NC(=O)c1c[nH]c2ncc(-c3nn(C)c4cc(F)ccc34)nc12)C1(C#N)CCCC1 [Example I-100, 2-(6-Fluoro-1-methyl-1H-indazol-3-yl)-5H-pyrrolo[2,3-b]pyrazine-7-carboxylic acid [(R)-1-(1-cyano-cyclopentyl)-ethyl]-amide] | 156 |
| C[C@@H](NC(=O)c1c[nH]c2ncc(-c3nc(CO)n4cc(F)ccc34)nc12)C(=O)N1CC(C#N)C1 [Example I-35, 2-(6-Fluoro-3-hydroxymethyl-imidazo[1,5-a]pyridin-1-yl)-5H-pyrrolo[2,3-b]pyradine-7-carboxylic acid [(R)-2-(3-cyano-azetidin-1-yl)-1-methyl-2-oxo-ethyl]-amide] | 0.33 |
| COC[C@H](C)NC(=O)c1c[nH]c2ncc(-c3nn(CCN4CCOCC4)c4cc(F)ccc34)nc12 [Example I-238, 2-[6-Fluoro-1-(2-morpholin-4-yl-ethyl)-1H-indazol-3-yl]-5H-pyrrolo[2,3-b]pyrazine-7-carboxylic acid ((S)-2-methoxy-1-methyl-ethyl)-amide] | 0.815 |
| CC(NC(=O)c1c[nH]c2ncc(-c3nn(C)c4cc(F)ccc34)nc12)[C@H]1C[C@@H](C#N)C1 (stereo partly drawn) [Example I-76, 2-(6-Fluoro-1-methyl-1H-indazol-3-yl)-5H-pyrrolo[2,3-b]pyrazine-7-carboxylic acid [1-(cis-3-cyano-cyclobutyl)-ethyl]-amide] | 12.7 |
| N#CC1CCN(C(=O)[C@H](NC(=O)c2c[nH]c3ncc(-n4ncc5cc(Cl)c(Cl)cc54)nc23)C2CC2)CC1 [Example I-68, 2-(5,6-Dichloro-indazol-1-yl)-5H-pyrrolo[2,3-b]pyrazine-7-carboxylic acid [(R)-2-(4-cyano-piperidin-1-yl)-1-cyclopropyl-2-oxo-ethyl]-amide] | 5.75 |
| C[C@@H](NC(=O)c1c[nH]c2ncc(-c3nn(C)c4cccnc34)nc12)C(=O)N1CC(C#N)C1 [Example I-98, 2-(1-Methyl-1H-pyrazolo[4,3-b]pyridin-3-yl)-5H-pyrrolo[2,3-b]pyrazine-7-carboxylic acid [(R)-2-(3-cyano-azetidin-1-yl)-1-methyl-2-oxo-ethyl]-amide] | 6.78 |
| C[C@@H](NC(=O)c1c[nH]c2ncc(-c3nn(C)c4cc(F)ccc34)nc12)c1ccc(Br)cc1 [Example I-216, 2-(6-Fluoro-1-methyl-1H-indazol-3-yl)-5H-pyrrolo[2,3-b]pyrazine-7-carboxylic acid [(R)-1-(4-bromo-phenyl)-ethyl]-amide] | 13 |
| Cn1nc(-c2cnc3[nH]cc(C(=O)NC(C)(C)C)c3n2)c2ccc(Cl)cc21 [Example I-305, 2-(6-Chloro-1-methyl-1H-indazol-3-yl)-5H-pyrrolo[2,3-b]pyrazine-7-carboxylic acid tert-butylamide] | 444 |
| CO[C@@H](C)CNC(=O)c1c[nH]c2ncc(-c3nn(C)c4cc(F)ccc34)nc12 [Example I-135, 2-(6-Fluoro-1-methyl-1H-indazol-3-yl)-5H-pyrrolo[2,3-b]pyrazine-7-carboxylic acid ((S)-2-methoxy-propyl)-amide] | 6.9 |
| C[C@@H](NC(=O)c1c[nH]c2ncc(-c3nn(C)c4cc(F)ccc34)nc12)[C@H]1CCCO1 [Example I-64, 2-(6-Fluoro-1-methyl-1H-indazol-3-yl)-5H-pyrrolo[2,3-b]pyrazine-7-carboxylic acid [(R)-(R)-1-(tetrahydro-furan-2-yl)-ethyl]-amide] | 13.3 |
| Cn1nc(-c2cnc3[nH]cc(C(=O)N[C@H](c4ccc(Br)cc4)C(F)(F)F)c3n2)c2ccc(F)cc21 [Example I-211, 2-(6-Fluoro-1-methyl-1H-indazol-3-yl)-5H-pyrrolo[2,3-b]pyrazine-7-carboxylic acid [(R)-1-(4-bromo-phenyl)-2,2,2-trifluoro-ethyl)-amide] | > 1000 |

Continued by falling IC50, values first:

| IC50 [nM] | Structure (SMILES) |
| --- | --- |
| 136 | CC(COc1ccccc1)NC(=O)c1c[nH]c2ncc(-c3nn(C)c4cc(F)ccc34)nc12 (stereo not shown) [Example I-202, 2-(6-Fluoro-1-methyl-1H-indazol-3-yl)-5H-pyrrolo[2,3-b]pyrazine-7-carboxylic acid (1-methyl-2-phenoxy-ethyl)-amide] |
| 84.6 | C[C@@H](NC(=O)c1c[nH]c2ncc(-c3nn(C)c4cc(Cl)ccc34)nc12)C(=O)N1CCOCC1 [Example I-28, 2-(6-Chloro-1-methyl-1H-indazol-3-yl)-5H-pyrrolo[2,3-b]pyrazine-7-carboxylic acid ((R)-1-methyl-2-morpholin-4-yl-2-oxo-ethyl)-amide] |
| 57.1 | C[C@@H](NC(=O)c1c[nH]c2ncc(-c3nn(C)c4cc(Cl)cc(Cl)c34)nc12)C(=O)N1CC(C#N)C1 [Example I-97, 2-(4,6-Dichloro-1-methyl-1H-indazol-3-yl)-5H-pyrrolo[2,3-b]pyrazine-7-carboxylic acid [(R)-2-(3-cyano-azetidin-1-yl)-1-methyl-2-oxo-ethyl]-amide] |
| 8.48 | Cn1nc(-c2cnc3[nH]cc(C(=O)NCC4CC4)c3n2)c2ccc(F)cc21 [Example I-117, 2-(6-Fluoro-1-methyl-1H-indazol-3-yl)-5H-pyrrolo[2,3-b]pyrazine-7-carboxylic acid cyclopropylmethyl-amide] |
| 4.17 | C[C@@H](NC(=O)c1c[nH]c2ncc(-c3nn(CC(=O)N(C)C)c4cc(Cl)ccc34)nc12)C(=O)N1CC(C#N)C1 [Example I-227, 2-(6-Chloro-1-dimethylcarbamoylmethyl-1H-indazol-3-yl)-5H-pyrrolo[2,3-b]pyrazine-7-carboxylic acid [(R)-2-(3-cyano-azetidin-1-yl)-1-methyl-2-oxo-ethyl]-amide] |
| 2.12 | Cn1nc(-c2cnc3[nH]cc(C(=O)N[C@@H](C(=O)N4CCC(C#N)CC4)C(C)(C)C)c3n2)c2ccc(Cl)cc21 [Example I-19, 2-(6-Chloro-1-methyl-1H-indazol-3-yl)-5H-pyrrolo[2,3-b]pyrazine-7-carboxylic acid [(R)-1-(4-cyano-piperidine-1-carbonyl)-2,2-dimethyl-propyl]-amide] |
| 2.11 | C[C@@H](NC(=O)c1c[nH]c2ncc(-c3nn(CC(=O)N4CCOCC4)c4cc(Cl)ccc34)nc12)C(=O)N1CC(C#N)C1 [Example I-228, 2-[6-Chloro-1-(2-morpholin-4-yl-2-oxo-ethyl)-1H-indazol-3-yl]-5H-pyrrolo[2,3-b]pyrazine-7-carboxylic acid [(R)-2-(3-cyano-azetidin-1-yl)-1-methyl-2-oxo-ethyl]-amide] |
| 1.77 | C[C@H](NC(=O)c1c[nH]c2ncc(-c3nn(C)c4ccc(Cl)cc34)nc12)C(C)(C)C [Example I-11, 2-(5-Chloro-1-methyl-1H-indazol-3-yl)-5H-pyrrolo[2,3-b]pyrazine-7-carboxylic acid ((S)-1,2,2-trimethyl-propyl)-amide] |
| 1.15 | C[C@@H](NC(=O)c1c[nH]c2ncc(-c3nn(C)c4cc(C(F)(F)F)ccc34)nc12)C(=O)N1CC(C#N)C1 [Example I-18, 2-(1-Methyl-6-trifluoromethyl-1H-indazol-3-yl)-5H-pyrrolo[2,3-b]pyrazine-7-carboxylic acid [(R)-2-(3-cyano-azetidin-1-yl)-1-methyl-2-oxo-ethyl]-amide] |
| 1.06 | Cn1nc(-c2cnc3[nH]cc(C(=O)N[C@@H](C(=O)N4CCC(C#N)CC4)C4CC4)c3n2)c2cc(Cl)ccc21 [Example I-3, 2-(5-Chloro-1-methyl-1H-indazol-3-yl)-5H-pyrrolo[2,3-b]pyrazine-7-carboxylic acid [(R)-2-(4-cyano-piperidin-1-yl)-1-cyclopropyl-2-oxo-ethyl]-amide] |
| 0.59 | C[C@@H](NC(=O)c1c[nH]c2ncc(-c3n[nH]c4cc(Cl)ccc34)nc12)C(=O)N1CC(C#N)C1 [Example I-23, 2-(6-Chloro-1H-indazol-3-yl)-5H-pyrrolo[2,3-b]pyrazine-7-carboxylic acid [(R)-2-(3-cyano-azetidin-1-yl)-1-methyl-2-oxo-ethyl]-amide] |

From patent publication US8658646B2, “Pyrrolopyrazine kinase inhibitors” (Hoffmann-LaRoche Inc., priority 2011, dated 2014)
